The values that follow come from ChEMBL document CHEMBL2046360, “Hydrophobic Interactions Improve Selectivity to ERα for Ben-zothiophene SERMs” (ACS Med Chem Lett, 2012).

For data set [1], the target named is Estrogen receptor beta (Homo sapiens, UniProt Q92731). Description: Displacement of [3H]estradiol from ERbeta after 4 hrs by scintillation counting. (Displacement assays read how much labelled ligand stays bound in the presence of the test substance.)
For data set [2], the system named is Rattus norvegicus. The experiment in a line: […] Sprague-Dawley rat assessed as reduction of bone loss by measuring volumetric bone mineral density administered qd after 4 days post ovariectomy measured after 5 weeks. Type of data set: functional, organism-based.
The test system of data set [3] is MCF7. The experiment in a line: Antiproliferative activity against human MCF7 cells after 48 hrs by [3H]-thymidine incorporation assay. The format is functional, cell-based. In general terms: Incorporation of labelled thymidine or its analogues reports DNA synthesis.
Data set [4] concerns Rattus norvegicus. Description: AUC (0 to 24 hrs) in rat at 10 mg/kg, po. Type of data set: ADME, organism-based, Plasma. To be noted: in vivo. Also noted: time < 24 hr, dose 10 mg/kg, route oral.
The target in data set [5] is T1, Estrogen receptor (Homo sapiens, UniProt P03372).
T1 sequence (P03372 whole entry): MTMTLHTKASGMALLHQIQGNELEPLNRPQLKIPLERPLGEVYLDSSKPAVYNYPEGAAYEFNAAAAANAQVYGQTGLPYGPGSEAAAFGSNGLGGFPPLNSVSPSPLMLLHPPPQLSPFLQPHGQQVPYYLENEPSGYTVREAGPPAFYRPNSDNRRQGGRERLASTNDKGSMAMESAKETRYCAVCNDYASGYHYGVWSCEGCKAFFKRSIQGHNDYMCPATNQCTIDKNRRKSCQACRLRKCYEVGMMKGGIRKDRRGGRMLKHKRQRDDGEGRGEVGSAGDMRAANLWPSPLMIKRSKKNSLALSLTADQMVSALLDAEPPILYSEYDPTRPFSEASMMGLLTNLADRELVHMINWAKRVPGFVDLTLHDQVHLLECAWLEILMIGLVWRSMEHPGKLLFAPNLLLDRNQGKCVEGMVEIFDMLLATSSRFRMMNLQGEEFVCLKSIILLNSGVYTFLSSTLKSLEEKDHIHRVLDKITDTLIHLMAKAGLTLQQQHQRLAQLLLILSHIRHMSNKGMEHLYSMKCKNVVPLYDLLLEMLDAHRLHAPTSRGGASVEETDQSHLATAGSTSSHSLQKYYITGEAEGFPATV
The experiment in a line: Binding affinity to ERalpha ligand binding domain.

For data set [6], the target named is T1, Estrogen receptor. The experiment in a line: Displacement of [3H]estradiol from ERalpha after 4 hrs by scintillation counting.
A short description of data set [7]: Selectivity ratio of Ki for ERbeta to Ki for ERalpha.
A short description of data set [8]: Cmax in rat at 10 mg/kg, po. Type of data set: ADME, organism-based. Also noted: dose 10 mg/kg, route oral. To be noted: in vivo.
Data set [9] has as its system Rattus norvegicus. The experiment in a line: Antiestrogenic activity in young Sprague-Dawley rat assessed as inhibition of estrogen-induced uterine hypertrophy at 0.01 to 1 mg/kg, po for 3 days. Type of data set: functional, organism-based.

Active and inactive are the calls of the source. The calls are words filed in the database; no cut-off is given here.

Chain of Estrogen receptor beta (Q92731 whole entry): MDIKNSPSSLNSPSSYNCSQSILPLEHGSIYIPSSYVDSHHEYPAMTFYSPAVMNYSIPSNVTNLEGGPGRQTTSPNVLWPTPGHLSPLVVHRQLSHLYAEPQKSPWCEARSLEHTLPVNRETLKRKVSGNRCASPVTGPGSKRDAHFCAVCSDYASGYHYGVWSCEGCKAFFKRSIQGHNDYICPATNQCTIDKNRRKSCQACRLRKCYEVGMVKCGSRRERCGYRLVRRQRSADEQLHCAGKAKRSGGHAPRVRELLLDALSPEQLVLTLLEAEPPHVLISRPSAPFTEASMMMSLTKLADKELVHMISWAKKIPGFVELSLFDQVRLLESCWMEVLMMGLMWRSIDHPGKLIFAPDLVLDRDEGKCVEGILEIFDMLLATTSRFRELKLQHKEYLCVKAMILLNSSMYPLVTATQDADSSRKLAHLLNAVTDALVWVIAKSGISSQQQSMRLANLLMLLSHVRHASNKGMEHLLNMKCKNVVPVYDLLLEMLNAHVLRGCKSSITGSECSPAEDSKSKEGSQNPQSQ

`CCCCc1ccc(-c2sc3cc(O)ccc3c2C(=O)c2ccc(OCCN3CCCCC3)cc2)cc1`: the Ki – broadly, the equilibrium dissociation constant of an inhibitor or competing ligand from its target – amounted to 35 nM in data set [1], 0.25 nM in [5] and 0.25 nM in data set [6]. Also, the Activity result in data set [2] is “Dose-dependent effect”. Also, in [3], it took 33 nM to reach half-maximal inhibition (IC50). The AUC (usually concentration integrated over time) in data set [4] was determined as 2337 ng·h/mL. Moreover, the Ratio Ki in [7] came out at 140. Besides, in data set [8], the Cmax (commonly the peak of the concentration-time curve) amounted to 210 ng/mL. Also, the inhibition entry in data set [9] is “Active”.
